From patent publication US20260200939A1, “MOLECULAR GLUE DEGRADER COMPOUNDS AND USES THEREOF” (Novartis AG, priority 2022, published 2026) come the findings set out here.

Some results are limits rather than exact numbers.

One may read the DC50 as the concentration giving 50% degradation. Low values mean a more potent degrader, high ones a less potent degrader. In general, IC50 refers to the concentration that inhibits the measured activity by half.

The target of one assay is T1, CDK4 (Homo sapiens, UniProt P11802).
T1 construct: endogenous in cells; host or cells: C33A
The assay is described as follows: CDK4 Degradation Assay, Western blotting.
Conditions: not given
The format is cell-based. Here is the method: C33A cells were purchased from American Type Culture Collection (ATCC) and were cultured in Dulbecco's Modified Eagle Medium (DMEM) containing 10% (v/v) fetal bovine serum (FBS) and maintained at 37° C. with 5% CO2. 22RV1 cells were purchased from the ATCC and were cultured in RPMI-1640 Medium containing 10% (v/v) FBS and maintained at 37° C. with 5% CO2. HEK293T cells were obtained from the UC Berkeley Cell Culture Facility and were cultured in DMEM containing 10% (v/v) FBS and maintained at 37° C. with 5% CO2. K562 cells were obtained from the UC Berkeley Cell Culture Facility and were cultured in Iscove's Modified Dulbecco's Medium (IMDM) containing 10% (v/v) FBS and maintained at 37° C. with 5% CO2. MV-4-11 cells were obtained from the ATCC and were cultured in IMDM containing 10% (v/v) FBS and maintained at 37° C. with 5% CO2. A549 cells were obtained from the ATCC and were cultured in F-12K Medium containing 10% (v/v) FBS and maintained at 37° C. with 5% CO2. Mino cells were obtained from the ATCC and were cultured in RPMI-1640 Medium containing 10% (v/v) FBS and maintained at 37° C. with 5% CO2. LNCaP cells were obtained from the ATCC and were cultured in RPMI-1640 Medium containing 10% (v/v) FBS and maintained at 37° C. with 5% CO2. Unless otherwise specified, all cell culture materials were purchased from Gibco. It is not known whether HEK293T cells are from male or female origin.
Cells were washed twice with cold PBS, scraped, and pelleted by centrifugation (700 g, 5 min, 4° C.). Pellets were resuspended in PBS, sonicated, clarified by centrifugation (12,000 g, 10 min, 4° C.), and lysate was transferred to new low-adhesion microcentrifuge tubes. Proteome concentrations were determined using BCA assay and lysate was diluted to appropriate working concentrations.
Proteins were resolved by SDS/PAGE and transferred to nitrocellulose membranes using the Trans-Blot Turbo transfer system (Bio-Rad). Membranes were blocked with 5% BSA in Tris-buffered saline containing Tween 20 (TBS-T) solution for 30 min at RT, washed in TBS-T, and probed with primary antibody diluted in recommended diluent per manufacturer overnight at 4° C. After 3 washes with TBS-T, the membranes were incubated in the dark with IR680- or IR800-conjugated secondary antibodies at 1:10,000 dilution in 5% BSA in TBS-T at RT for 1 h. After 3 additional washes with TBST, blots were visualized using an Odyssey Li-Cor fluorescent scanner. The membranes were stripped using ReBlot Plus Strong Antibody Stripping Solution (EMD Millipore) when additional primary antibody incubations were performed. Antibodies used in this study were CDK4 (Abcam ab108357), Vinculin (Abcam ab129002), GAPDH (Cell Signaling Technology 14C10), RNF126 (Santa Cruz Biotechnology sc-376005), BRD4 (Abcam ab128874), Beta Actin (Cell Signaling Technology 13E5), PDE5 (Abcam ab259945), AR-V7 (Abcam ab273500), c-Abl (Santa Cruz Biotechnology sc-23), SMARCA2 (Abcam ab240648), LRRK2 (Abcam ab133474), BTK (Cell Signaling Technology D3H5), Androgen Receptor (Abcam ab133273).
A general note: Immunoblotting shows a protein as a band on a membrane.
Consider `COc1ccc(C(=O)/C(C)=C/C(=O)N2CCN(c3ccc(Nc4ncc5cc(C(=O)N(C)C)n(C6CCCC6)c5n4)nc3)CC2)cc1` [Compound 146, (E)-7-cyclopentyl-2-((5-(4-(4-(4-methoxyphenyl)-3-methyl-4-oxobut-2-enoyl)piperazin-1-yl)pyridin-2-yl)amino)-N,N-dimethyl-7H-pyrrolo[2,3-d]pyrimidine-6-carboxamide], for which the DC50 was > 10000 nM. On the same count and under the same terms, next, `COc1ccccc1C(=O)/C=C/C(=O)N1CCN(c2ccc(Nc3ncc4cc(C(=O)N(C)C)n(C5CCCC5)c4n3)nc2)CC1` [Compound 148, (E)-7-cyclopentyl-2-((5-(4-(4-(2-methoxyphenyl)-4-oxobut-2-enoyl)piperazin-1-yl)pyridin-2-yl)amino)-N,N-dimethyl-7H-pyrrolo[2,3-d]pyrimidine-6-carboxamide]: > 10000 nM. For the compound `CN(C)C(=O)c1cc2cnc(Nc3ccc(N4CCN(C(=O)/C=C/C(=O)c5ccc(F)cc5)CC4)cn3)nc2n1C1CCCC1` [Compound 151, (E)-7-cyclopentyl-2-((5-(4-(4-(4-fluorophenyl)-4-oxobut-2-enoyl)piperazin-1-yl)pyridin-2-yl)amino)-N,N-dimethyl-7H-pyrrolo[2,3-d]pyrimidine-6-carboxamide], the DC50 was > 10000 nM.

Turning to `CN(C)C(=O)c1cc2cnc(Nc3ccc(N4CCN(C(=O)/C=C/C(=O)c5ccccc5Cl)CC4)cn3)nc2n1C1CCCC1` [Compound 158, (E)-2-((5-(4-(4-(2-chlorophenyl)-4-oxobut-2-enoyl)piperazin-1-yl)pyridin-2-yl)amino)-7-cyclopentyl-N,N-dimethyl-7H-pyrrolo[2,3-d]pyrimidine-6-carboxamide], the DC50 is > 10000 nM. Still for that read-out and setting: as for `CN(C)C(=O)c1cc2cnc(Nc3ccc(N4CCN(C(=O)/C=C/C(=O)c5ccccc5Br)CC4)cn3)nc2n1C1CCCC1` [Compound 159, (E)-2-((5-(4-(4-(2-bromophenyl)-4-oxobut-2-enoyl)piperazin-1-yl)pyridin-2-yl)amino)-7-cyclopentyl-N,N-dimethyl-7H-pyrrolo[2,3-d]pyrimidine-6-carboxamide], the figure is > 10000 nM. Same read-out and setting: as for `COc1ccc(C(=O)/C=C(\C)C(=O)N2CCN(c3ccc(Nc4ncc5cc(C(=O)N(C)C)n(C6CCCC6)c5n4)nc3)CC2)cc1` [Compound 160, (E)-7-cyclopentyl-2-((5-(4-(4-(4-methoxyphenyl)-2-methyl-4-oxobut-2-enoyl)piperazin-1-yl)pyridin-2-yl)amino)-N,N-dimethyl-7H-pyrrolo[2,3-d]pyrimidine-6-carboxamide], the figure is > 10000 nM.

Another assay deals with T2, Recombinant RNF126 (Homo sapiens, UniProt Q9BV68).
T2 construct: FLAG (C); host or cells: HEK293T
T2 sequence (Q9BV68 whole entry): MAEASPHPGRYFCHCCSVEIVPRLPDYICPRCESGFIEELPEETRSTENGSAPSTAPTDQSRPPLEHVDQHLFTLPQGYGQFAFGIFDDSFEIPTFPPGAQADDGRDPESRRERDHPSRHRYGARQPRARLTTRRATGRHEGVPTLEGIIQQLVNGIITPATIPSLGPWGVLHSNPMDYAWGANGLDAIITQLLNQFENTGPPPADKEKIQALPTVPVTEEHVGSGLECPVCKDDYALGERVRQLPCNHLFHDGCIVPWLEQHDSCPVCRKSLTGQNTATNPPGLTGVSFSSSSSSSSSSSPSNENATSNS
The assay is described as follows: RNF126 Binding Assay, gel-based ABPP.
Conditions: not given
Here is the method: RNF126 mammalian expression plasmid with a C-terminal FLAG tag was purchased from Origene (Origene Technologies Inc., RC204986). The plasmid was transformed into NEB 5-alpha Competent E. coli (DH5) cells (NEB product no. C2987H). The following day, a single transformed colony was used to inoculate 50 ml of nutrient rich LB medium containing kanamycin (50 μg/ml) and was incubated at 37° C. overnight, with agitation (250 rpm). A Miniprep (Qiagen) kit was used to isolate the plasmid before sequence verification with appropriate primers.
HEK293T cells were grown to 30-50% confluency in DMEM supplemented with 10% FBS (Corning) and maintained at 37° C. with 5% CO2. Immediately before transfection, media was replaced with DMEM containing 5% FBS. Each plate was transfected with 24 μg of overexpression plasmid with 24 μL Lipofectamine 3000 (Invitrogen) in Opti-MEM. After 48 h cells were collected in PBS, lysed by sonication, and batch bound with anti-DYKDDDDK resin (GenScript, L00432) for 2 hours. Lysate and resin were washed with PBS and eluted with 133.33 μg/ml 3×FLAG peptide (ApexBio, A6001) in PBS. Five elutions were performed for 15 minutes each. Elutions were concentrated and the protein was stored in PBS. Concentration and purity was determined using the BCA assay and western blotting.
Recombinant RNF126 ([…]) was pre-treated with either DMSO vehicle or covalent ligand at 37° C. for 30 min in 25 μL of PBS, and subsequently treated with of IA-Rhodamine (concentrations designated in figure legends) (Setareh Biotech) at room temperature for 1 h in the dark. The reaction was stopped by addition of 4×reducing Laemmli SDS sample loading buffer (Alfa Aesar). After boiling at 95° C. for 5 min, the samples were separated on precast 4-20% Criterion TGX gels (Bio-Rad). Probe-labeled proteins were analyzed by in-gel fluorescence using a ChemiDoc MP (Bio-Rad).
In the case of `Cc1ccccc1C(=O)/C=C/C(=O)N1CCN(C(=O)OC(C)(C)C)CC1` [Compound 407, tert-butyl (E)-4-(4-oxo-4-(o-tolyl)but-2-enoyl)piperazine-1-carboxylate], the IC50 was < 100 nM.

As to `COc1ccc(C(=O)/C=C\C(=O)N2CCN(C(=O)OC(C)(C)C)CC2)cc1` [Compound 411, tert-butyl (Z)-4-(4-(4-methoxyphenyl)-4-oxobut-2-enoyl)piperazine-1-carboxylate], the IC50 fell in the range of 10000 to 50000 nM. Still for that read-out and setting: next, `COc1ccc(C(=O)/C=C/C(=O)N2CCN(C(=O)OC(C)(C)C)CC2)cc1F` [Compound 414, tert-butyl (E)-4-(4-(3-fluoro-4-methoxyphenyl)-4-oxobut-2-enoyl)piperazine-1-carboxylate]: < 100 nM; `CC(C)(C)OC(=O)N1CCN(C(=O)/C=C/C(=O)c2ccccc2C#N)CC1` [Compound 415, tert-butyl (E)-4-(4-(2-cyanophenyl)-4-oxobut-2-enoyl)piperazine-1-carboxylate]: < 100 nM. On the same count and under the same terms, as for `CC(C)(C)OC(=O)N1CCN(C(=O)/C=C/C(=O)c2ccc(C#N)cc2)CC1` [Compound 416, tert-butyl (E)-4-(4-(4-cyanophenyl)-4-oxobut-2-enoyl)piperazine-1-carboxylate], the figure is < 100 nM.

The assay is the same for the next values; noted with them: range with lower bound in nM and upper bound in μM.
Turning to `CC(C)(C)OC(=O)N1CCN(C(=O)/C=C/C(=O)c2ccc3c(c2)CCO3)CC1` [Compound 405, tert-butyl (E)-4-(4-(2,3-dihydrobenzofuran-5-y1)-4-oxobut-2-enoyl)piperazine-1-carboxylate], the IC50 is 100 to 1000 nM.

On to `Cc1ccc(C(=O)/C=C/C(=O)N2CCN(C(=O)OC(C)(C)C)CC2)cc1` [Compound 406, tert-butyl (E)-4-(4-oxo-4-(p-tolyl)but-2-enoyl)piperazine-1-carboxylate], for which the IC50 lay in the range of 100 to 1000 nM.

`C#CCCCCC(=O)N1CCN(C(=O)/C=C/C(=O)c2ccc(OC)cc2)CC1` [Compound 408, (E)-1-(4-(hept-6-ynoyl)piperazin-1-y1)-4-(4-methoxyphenyl)but-2-ene-1,4-dione]: the IC50 fell in the range of 100 to 1000 nM. The same measure, in the same setting: as for `C#CCOCCC(=O)N1CCN(C(=O)/C=C/C(=O)c2ccc(OC)cc2)CC1` [Compound 409, (E)-1-(4-methoxyphenyl)-4-(4-(3-(prop-2-yn-1-yloxy)propanoyl)piperazin-1-yl)but-2-ene-1,4-dione], the figure is 100 to 1000 nM; as for `COc1ccc(C(=O)/C=C/C(=O)N2CCN(C(=O)OC(C)(C)C)CC2)c(F)c1` [Compound 412, tert-butyl (E)-4-(4-(2-fluoro-4-methoxyphenyl)-4-oxobut-2-enoyl)piperazine-1-carboxylate], 100 to 1000 nM.

Turning to `COc1cc(F)ccc1C(=O)/C=C/C(=O)N1CCN(C(=O)OC(C)(C)C)CC1` [Compound 413, tert-butyl (E)-4-(4-(4-fluoro-2-methoxyphenyl)-4-oxobut-2-enoyl)piperazine-1-carboxylate], the IC50 is 100 to 1000 nM. Still for that read-out and setting: next, `CC(C)(C)OC(=O)N1CCN(C(=O)/C=C/C(=O)c2cccc(C#N)c2)CC1` [Compound 417, tert-butyl (E)-4-(4-(3-cyanophenyl)-4-oxobut-2-enoyl)piperazine-1-carboxylate]: 100 to 1000 nM. For the compound `COc1ccc(C(=O)/C=C/C(=O)N2CCN(C(=O)OC(C)(C)C)CC2)c(Cl)c1` [Compound 418, tert-butyl (E)-4-(4-(2-chloro-4-methoxyphenyl)-4-oxobut-2-enoyl)piperazine-1-carboxylate], the IC50 lay within 100 to 1000 nM. On the same count and under the same terms, next, `C#CCOc1ccc(C(=O)/C=C/C(=O)N2CCN(C(=O)OC(C)(C)C)CC2)cc1` [Compound 419, tert-butyl (E)-4-(4-oxo-4-(4-(prop-2-yn-1-yloxy)phenyl)but-2-enoyl)piperazine-1-carboxylate]: 100 to 1000 nM.
